ChEMBL document CHEMBL5380773, “Novel Feleucin-K3-Derived Peptides Modified with Sulfono-γ-AA Building Blocks Targeting Pseudomonas aeruginosa and Methicillin-Resistant Staphylococcus aureus Infections” (J Med Chem, 2023)
Active and inactive are the calls of the source. Numbered stars: 1 amine (or outer) side, 2 acyl side, 3 side chain; on linkers, the order of the positions; unused ones are H or OH. Square brackets hold non-standard residues; d marks the D form. Peptide text beside a SMILES is read from it. * marks the point of attachment. X2 = CC(C)C[C@H](N)CN(CC(=O)[*:2])[*:1]; X1 = O=S(=O)(c1ccc(I)cc1)*

Columns and labels:
Pseudomonas aeruginosa [1] = assay: Antibiofilm activity against Pseudomonas aeruginosa ATCC 27853 assessed as reduction in biofilm structures at MBIC90 by scanning electron microscopic analysis; format: functional, organism-based
[2] = tested on: Staphylococcus epidermidis; assay: Antibiofilm activity against Staphylococcus epidermidis ATCC 12228 at 4 to 8 ug/ml incubated for 24 hrs by crystal violet staining based microplate reader analysis; format: functional, organism-based; details: dose 4-8 µg/ml
DNA = assay: Binding affinity to methicillin resistant Staphylococcus aureus DNA at 8 times MIC incubated for 30 mins; format: nucleic-acid assay
Pseudomonas aeruginosa [3] = assay: Bactericidal activity against Pseudomonas aeruginosa ATCC 27853 at 4 times MIC after 30 mins by time kill assay; format: functional, organism-based
Staphylococcus aureus = assay: Bactericidal activity against methicillin resistant Staphylococcus aureus ATCC 33591 at 4 times MIC after 1 to 2.5 hrs by time kill assay; format: functional, organism-based; details: time 1-2.5 hrs

Measured: Activity

CC(C)C[C@H](N)CN(CC(=O)N[C@@H](CCCCN)C(=O)N[C@@H](CC(C)C)C(=O)N[C@@H](CC(C)C)C(=O)N[C@@H](CCCCN)C(=O)N[C@@H](CCCCN)C(=O)N[C@@H](CC(C)C)C(=O)N[C@@H](CC(C)C)C(N)=O)S(=O)(=O)c1ccc(I)cc1 (X1-[X2]KLLKKLL-NH2)
active: all assays above
